Source: patent US20210177803A1, “NEW PHARMACEUTICAL USE FOR THE TREATMENT OF HEART FAILURE” (Novartis AG, priority 2018, published 2021)
Where two headings read alike, the source gives them in different places.

Columns and labels:
[1] = test system: patients with HFrEF following hemodynamic stabilization after an episode of ADHF; details: for Proportion of patients achieving the target dose of 200 mg LCZ696 b.i.d.: 10 weeks after randomization; for Odds ratio (OR) for up-titration success to 200 mg b.i.d.: multivariate logistic regression
Excerpt: The study design comprises three Epochs (phases): the Screening Epoch; the Treatment Epoch defined as 10 weeks after Randomization; and 16-week Follow-up Epoch. Patients were stratified into three groups based on their pre-admission treatment status: (a) receiving an angiotensin-converting enzyme inhibitor (ACEI), (b) receiving an angiotensin receptor blocker (ARB), or (c) ACEI/ARB-naïve patients.
The study population consists of patients hospitalized for an episode of acute decompensation of heart failure who are diagnosed with CHF NYHA class II-to-IV and reduced ejection fraction (LVEF 40%). Patients can be either with first presentation (de novo), or acute decompensation of HF due to deterioration in patients with a prior history of (chronic) HF.
Inclusion Criteria: • 1. Patients hospitalized due to acute decompensated HF episode (ADHF) as primary diagnosis) and consistent Signs and Symptoms. • 2. Diagnosis of HF New York Heart Association class II-to-IV and reduced ejection fraction: Left ventricular ejection fraction 40% at Screening. • 3. […] Stabilized (while in the hospital) for at least 24 h leading to Randomization defined as: • No need for IV diuretics in the past 24 h prior to signing ICF • Systolic blood pressure (SBP) 110 mm Hg for at least 6 h prior to Randomization • 5. Meeting one of the following criteria: • Patients on any dose of ACEI or ARB at screening • ACEI/ARB naïve patients and patients not on ACEI or ARB for at least 4 weeks before screening.
The basis for up-titration toward the target dose was taking into consideration tolerability (i.e., incidence of hypotension, renal or hepatic impairment and hyperkalemia) based on clinical evaluation and laboratory assessment.

[2] = test system: patients hospitalized for acute HFrEF; assay: PIONEER-HF study: clinical outcomes; type: in vivo, human
Experimental: The study rational and design is described in by Velazquez E J, et al. .in Am.
(§1) The starting dose and all subsequent doses were selected to optimize the highest tolerated dose based on a systolic blood pressure (SBP) algorithm.
(§2) Inclusion Criteria: • Patients ≥18 y of age with the capacity to provide written informed consent. • Currently hospitalized for a primary diagnosis of HF, including symptoms and signs of fluid overload. • Eligible patients will be randomized no earlier than 24 hours and up to ten days after presentation while still hospitalized as long as meet the following definition of stable status: • SBP≥100 mm Hg for the preceding 6 hours prior to randomization; no symptomatic hypotension • No increase (intensification) in i.v. diuretic dose within last 6 hours prior to randomization • No i.v. inotropic drugs for 24 hours prior to randomization • No i.v. vasodilators including nitrates within last 6 hours prior to randomization • Left ventricular EF 40% within the past 6 m (including current hospitalization) using echocardiography, multi gated acquisition scan (MUGA), CT scanning, MRI or ventricular angiography, provided no subsequent study documented an EF of >40% • Elevated NT-proBNP≥1600 pg/mL OR BNP≥400 pg/mL during current hospitalization.

[3] = test system: patients hospitalized for acute HFrEF
Experimental: as §1, §2

[4] = test system: ambulatory HF patients with an ejection fraction ≤40%; details: compared with enalapril; cited from earlier work
[5] = 8 weeks, LCZ696 n = 440, enalapril n = 441
[6] = compared with enalapril, 8-week study period

## CCCCC(=O)N(Cc1ccc(-c2ccccc2-c2nn[n-]n2)cc1)[C@H](C(=O)[O-])C(C)C.CCOC(=O)[C@H](C)C[C@@H](Cc1ccc(-c2ccccc2)cc1)NC(=O)CCC(=O)[O-].[Na+].[Na+].[Na+] [LCZ696, trisodium [3((1S,3R)-1-biphenyl-4-ylmethyl-3-ethoxycarbonyl-1-butylcarbamoyl) propionate-(S)-3′-methyl-2′-(pentanoyl{2″-(tetrazol-5-ylate)biphenyl-4′-ylmethyl}amino)butyrate]hemipentahydrate]
[1]; ACEI or ARB strata compared to naive
  Relative RR, primary endpoint (target dose 200 mg b.i.d.): 1.01
[1]; ACEI/ARB naïve patients
  Patients who achieved the target dose: 48.3%
[1]; ACEI/ARB naïve vs prior ACEI/ARB use
  RRR, achieved target dose: 1.008
[1]; both groups
  Patients who achieved and maintained any dose of LCZ696 for at least 2 weeks leading to week 10: More than 86%
[1]; both groups (ACEI/ARB naïve and not naïve)
  Subjects maintained on any dose at week 10: 88%
[1]; de novo HF patients
  Patients able to achieve and maintain any dose at week 10: 90%
  Patients who achieved the target dose: 56.0%
[1]; de novo HF vs prior HF diagnosis
  RRR, achieved target dose: 1.30
[1]; in-hospital or shortly after discharge
  Feasibility and tolerability of early initiation (in words): feasible and overall well tolerated
[1]; post-discharge arm
  Proportion of patients achieving the target dose of 200 mg LCZ696 b.i.d.: 50.4%
[1]; post-discharge initiation
  Patients who achieved and maintained any dose of LCZ696 for at least 2 weeks leading to week 10: 88.8%
  Patients who achieved and maintained either 100 mg b.i.d. or 200 mg b.i.d. for at least 2 weeks leading to week 10: 68%
[1]; pre- vs post-discharge
  RRR, achieved and maintained 100 mg or 200 mg b.i.d.: 0.919
  RRR, achieved and maintained any dose: 0.973
[1]; pre- vs post-discharge, 10 weeks
  Relative risk ratio (RRR), achieving target dose 200 mg b.i.d.: 0.893
[1]; pre-discharge arm
  Proportion of patients achieving the target dose of 200 mg LCZ696 b.i.d.: 45.0%
[1]; pre-discharge initiation
  Patients who achieved and maintained any dose of LCZ696 for at least 2 weeks leading to week 10: 86.4%
  Patients who achieved and maintained either 100 mg b.i.d. or 200 mg b.i.d. for at least 2 weeks leading to week 10: 62.5%
[1]; predictor: assignment to pre- or post-discharge initiation
  Odds ratio (OR) for up-titration success to 200 mg b.i.d.: 1.21
[1]; predictor: prior use of an ACEI or ARB
  Odds ratio (OR) for up-titration success to 200 mg b.i.d.: 1.04
[1]; subjects with a prior HF diagnosis
  Patients who achieved the target dose: 44.8%
[1]; subjects with prior ACEI/ARB use
  Patients who achieved the target dose: 47.9%
[2]; [5]
  Additional HF drug: 75 (17.0) number (%)
  Composite (death, rehospitalization for HF, LVAD implantation, or listing for cardiac transplant): 41 (9.3) number (%)
  Death: 10 (2.3) number (%)
  Expanded composite (composite plus unplanned outpatient visits requiring IV diuretics, or increase >50% in diuretic dose): 262 (59.5) number (%)
  HF rehospitalization: 35 (8.0) number (%)
  Increase in diuretic dose >50%: 242 (55.0) number (%)
  LVAD implantation: 1 (0.2) number (%)
  Listing for cardiac transplant: 0 (0.0) number (%)
  Unplanned outpatient visits requiring intravenous diuretics: 2 (0.5) number (%)
[2]; LCZ696 vs. Enalapril
  Additional HF drug, HR (95% CI): 0.89 (0.65, 1.22)
  Death, HR (95% CI): 0.66 (0.30, 1.48)
  Expanded composite, HR (95% CI): 0.409
  HF rehospitalization, HR (95% CI): 0.56 (0.37, 0.84)
  Increase in diuretic dose >50%, HR (95% CI): 0.84 (0.84, 1.21)
  LVAD implantation, HR (95% CI): 0.99 (0.06, 15.97)
  Unplanned outpatient visits requiring intravenous diuretics, HR (95% CI): 1.00 (0.14, 7.07)
[2]; [6]
  Absolute risk reduction, clinical composite: 7.5%
  Relative risk reduction, clinical composite: 44.6%
[3]; 8 weeks
  Hyperkalemia: 11.6%
  Symptomatic hypotension: 10.0%
  Worsening renal function: 13.6%
[3]; LCZ696 vs. Enalapril
  Angioedema, HR: 0.17
  Hyperkalemia, HR: 1.25
  Symptomatic hypotension, HR: 1.10
  Worsening renal function, HR: 0.93
[3]
  Angioedema in patients who identified as black (in words): no angioedema
[3]; listed as sacubitril-valsartan
  Angioedema in patients who identified as black (in words): no cases
[3]; blinded adjudication
  Angioedema events (number in words): one
[3]; blinded adjudication, 8 weeks
  Angioedema: 0.2%
[3]; by the week 8 study visit
  Patients in whom the maximum target dose had been achieved: 56%
[3]; excluding discontinuation due to death
  Study drug prematurely discontinued prior to 8 weeks: 19.6%
[3]; initiated after initial stabilization after an ADHF episode
  Tolerability (in words): well tolerated
[4]
  Relative risk reduction in cardiovascular mortality and hospitalization for worsening HF: 20%
